US10799456B2, “Multiple drug lipid nanoparticle composition and related methods for extended drug levels in blood and lymph tissue” (priority 2015, dated 2020)

How the values were obtained:
[1] = Plasma time course of ATV/RTV/TFV lipid nanoparticles in primates; format: in vivo, Macaca nemestrina; conditions: for AUC fraction (% total) 8-168 h: male, Macaca nemestrina, in vivo, sc
Experimental: All animal procedures were performed under an approved protocol reviewed by the University of Washington Institutional Animal Care and Use Committee. […] ATV, RTV, and TFV in the plasma were extracted in duplicate and analyzed with a liquid chromatography-mass spectrometry assay with a validated reverse phase HPLC/MS/MS method, similar to that of lopinavir (LPV), RTV, and TFV. […] Antimicrobial agents and chemotherapy. 2014. The linear trapezoidal method was used to calculate the area under the plasma drug concentration-time curve (AUC) for ATV, RTV, and TFV during the time course, which was close to 168 h post-dosing. […] All drugs in buffer and plasma were analyzed using a validated HPLC/MS/MS analytical method, capable of analyzing […], and TFV. The one-step analysis for LPV, RTV, and TFV was published previously. […] Antimicrobial agents and chemotherapy. 2014. Briefly, the HPLC system was outfitted with a Shimadzu 20AD HPLC (Shimadzu Scientific Instruments, Inc., Pleasanton, Calif.). […] Multiple reaction monitoring (MRM) was used to detect transition ions from a specific precursor ion to product ion. The analytes were detected using the following m/z transitions: 705.5/168.2 for ATV, 548.3/392.3 for DRV, 721.3/296.1 for RTV, 288.1/176 for TFV, and 238.1/193.2 for cyheptamide.

[2] = Sucrose gradient test of drug association; format: physicochemical; conditions: 5-20% sucrose gradient, 200,000 g, 4 hr, LPV/RTV/TFV LNPs, single miscible solvent method
Experimental: The sucrose gradient test to determine this characteristic is described in Example 5. Briefly, the sucrose gradient test comprises subjecting the multi-drug lipid nanoparticle to a continuous 5%-20% sucrose gradient and applying a centrifugal force of 200,000 g for 4 hours. The unassociated small molecules separate and float to the less dense fractions, whereas the associated small molecule agents sediment with the stable lipid nanoparticles in the denser gradients. The relative amounts of the unassociated and associated small molecule reagents can be quantified and, thus, compared.
The sucrose gradient test centrifugation test separates any unbound drugs from multi-drug lipid nanoparticles by sedimentation of lipid-drug particles through a sucrose gradient with increasing density to strip off unbound drugs. Under these conditions, all the free drugs in solution remained at (or floated to) the top of gradient where the sucrose density is low. Specifically, using a continuous gradient of 5-20% (with 65% cushion) sucrose, the lipid-drug particle mixture was subjected to centrifugal force at 200,000 g for 4 hr. Through this process, we were able to separate bound and unbound drug fractions. […] It is noted that the observed percentage of multi drug lipid nanoparticle association for the other two drugs (LPV and RTV) are consistent with data in Table 11.

[3] = Tables 18 and 19; cited from earlier work
[4] = Drug incorporation efficiency into lipid-drug nanoparticles (dialysis); format: physicochemical; conditions: LNPs with ATV + RTV + TFV (2:1:3); for Incorporation efficiency (%): laboratory 0.2 mL scale; for Incorporation efficiency (%) / Drug incorporation (% total): preclinical 45 mL scale
Experimental: J Acquir Immune Defic Syndr. […] Journal of pharmaceutical sciences. […] The AAPS journal. […] Residual solvent was removed overnight by vacuum desiccation. The dried lipid-drug film was then rehydrated with 0.9% NaCl containing 20 mM sodium bicarbonate (pH 7.4). The lipid-drug samples were allowed to hydrate at 60° C. for 2 h. Then samples were sonicated (laboratory scale) or homogenized (preclinical scale) to achieve a homogenous suspension.
The incorporation efficiency was calculated as the ratio of the amount of incorporated drug over the total amount of drug loaded multiplied by 100%.

[5] = Intracellular drug concentration in peripheral blood mononuclear cells (PBMCs); format: in vivo, Macaca nemestrina
Experimental: Four macaques were divided into two treatment groups (two animals per group). […] Data were normalized to the anti-HIV LNP dose for comparative analysis.
Plasma was removed, PBMCs were isolated by the density gradient method, and cells were aliquoted into pellets of approximately 2 million PBMCs each. An inguinal lymph node was surgically excised 24 h after drug administration (n=2 per treatment), LNMCs were isolated by passage through a 100-lm nylon cell strainer (Corning, Tewksbury, Mass.), and cells were aliquoted into pellets of approximately 1-2 million LNMCs each. All samples were stored at −80° C. prior to drug analysis.
Plasma concentrations of all three drugs were analyzed simultaneously by liquid chromatography-tandem mass spectrometry using a recently published method. […] PBMC and LNMC pellets were lysed using 200 μl water/methanol (1:1 v/v), sonicated for 10 min, and then extracted and analyzed using the same method as cited above. Intracellular concentrations were converted to ng/ml with the assumption that each cell has a volume of 4×10^−9 ml.

[6] = cited from earlier work
[7] = reported values; cited from earlier work
[8] = literature, cited from earlier work
[9] = Plasma drug exposure of three multi-drug lipid formulations vs free drug in primates; conditions: for Lipid/Free Ratio: total AUC

Compound: CC(C)c1nc(CN(C)C(=O)N[C@H](C(=O)N[C@@H](Cc2ccccc2)C[C@H](O)[C@H](Cc2ccccc2)NC(=O)OCc2cncs2)C(C)C)cs1 [Ritonavir (RTV), Ritonavir]
- AUC fraction (% total) 8-168 h [1]: 80.4%
- AUC 0-8 h ([1]; plasma, average of two primates, sc ATV/RTV/TFV LNPs 25/12.8/15.3 mg/kg): 339.1 ng·h/mL
- % association to lipid-drug particles (bound fraction) [2]: 76%
- LogP [3]: 6

Compound: C[C@H](Cn1cnc2c(N)ncnc21)OCP(=O)(O)O [Tenofovir (TFV), [(2R)-1-(6-aminopurin-9-yl)propan-2-yl]oxymethylphosphonic acid]
- Incorporation efficiency (%) [4]: 2.4 ± 0.1%
- Incorporation efficiency (%) ([4]; listed as TFV): about 2.4%
- Incorporation efficiency (%) / Drug incorporation (% total) [4]: 6.1 ± 0.8%
- Incorporation efficiency (%) / Drug incorporation (% total) ([4]; listed as tenofovir): 6.1±0.8%
- AUC fraction (% total) 8-168 h [1]: 97.4%
- LNP/free ratio, mononuclear cells in blood ([5]; 0 h): 1.0
- Lipid/Free Ratio, PBMCs ([5]; 0 h): 1
- LNP/free ratio, mononuclear cells in blood ([5]; 0.5 h): 0.3
- Lipid/Free Ratio, PBMCs ([5]; 0.5 h): 0.3
- LNP/free ratio, mononuclear cells in blood ([5]; 1 h): 0.4
- Lipid/Free Ratio, PBMCs ([5]; 1 h): 0.4
- LNP/free ratio, mononuclear cells in blood ([5]; 3 h): 0.5
- LNP/free ratio, mononuclear cells in blood ([5]; 5 h): 4.6
- Lipid/Free Ratio, PBMCs ([5]; 5 h): 4.6
- LNP/free ratio, mononuclear cells in blood ([5]; 8 h): 59.0
- LNP/free ratio, mononuclear cells in blood ([5]; 8 h, listed as PMPA): over 50
- LNP/free ratio, mononuclear cells in blood ([5]; 8 h, listed as TFV): over 50
- LNP/free ratio, mononuclear cells in blood ([5]; 24 h): 70.0
- Lipid/Free Ratio, PBMCs ([5]; 24 h): 70
- LNP/free ratio, mononuclear cells in blood ([5]; 48 h): >227.0
- LNP/free ratio, mononuclear cells in blood ([5]; 168 h): >25.0
- Lipid/Free Ratio, PBMCs ([5]; 168 h): >25.0
- % association to lipid-drug particles (bound fraction) [2]: around 75.5%
- % association to lipid-drug particles (bound fraction) ([2]; listed as Tenofovir (TFV or PMPA)): 75.5%
- Water solubility @ 25° C. [6]: 13.3 mg/mL
- % Drug Association to Particles, Liposomes [7]: ~5%
- final % drug association ([8]; double emulsion nano-precipitate method): less than 3%
- association of hydrophilic drug ([8]; phosphatidylcholine with stearylamine, particles up to ˜2000 nm): 70%
- Lipid/Free Ratio ([9]; ATZ/RTV/TFV combination): 25.2
- Lipid/Free Ratio ([9]; LPV/RTV/TFV combination): 13.1
- fold increase in plasma exposure, lipid-stabilized vs free drug ([9]; across drug combinations): 10- to 20 fold
